Laboratory results as given in article PMC6514607, “Synthesis of Chromen-4-One-Oxadiazole Substituted Analogs as Potent β-Glucuronidase Inhibitors” (Molecules, 2019).

| Structure (SMILES) | melting point |
| --- | --- |
| COc1cccc(-c2nnc(-c3ccc(-c4cc(=O)c5ccccc5o4)cc3)o2)c1 [Compound 14, 2-(4-(5-(3-Methoxyphenyl)-1,3,4-oxadiazol-2-yl)phenyl)-4H-chromen-4-one] | 299 to 300 °C |
| COc1ccccc1-c1nnc(-c2ccc(-c3cc(=O)c4ccccc4o3)cc2)o1 [Compound 15, 2-(4-(5-(2-Methoxyphenyl)-1,3,4-oxadiazol-2-yl)phenyl)-4H-chromen-4-one] | 286 to 287 °C |
| O=c1cc(-c2ccc(-c3nnc(-c4ccc(F)cc4)o3)cc2)oc2ccccc12 [Compound 4, 2-(4-(5-(4-Fluorophenyl)-1,3,4-oxadiazol-2-yl)phenyl)-4H-chromen-4-one] | 299 to 300 °C |
| O=c1cc(-c2ccc(-c3nnc(-c4ccccc4)o3)cc2)oc2ccccc12 [Compound 19, 2-(4-(5-Phenyl-1,3,4-oxadiazol-2-yl)phenyl)-4H-chromen-4-one] | 280 to 281 °C |
| O=c1cc(-c2ccc(-c3nnc(-c4ccccc4[N+](=O)[O-])o3)cc2)oc2ccccc12 [Compound 12, 2-(4-(5-(2-Nitrophenyl)-1,3,4-oxadiazol-2-yl)phenyl)-4H-chromen-4-one] | 287 to 288 °C |
| O=c1cc(-c2ccc(-c3nnc(-c4cccc(F)c4)o3)cc2)oc2ccccc12 [Compound 5, 2-(4-(5-(3-Fluorophenyl)-1,3,4-oxadiazol-2-yl)phenyl)-4H-chromen-4-one] | 294 to 295 °C |
| O=c1cc(-c2ccc(-c3nnc(-c4ccccc4F)o3)cc2)oc2ccccc12 [Compound 6, 2-(4-(5-(2-Fluorophenyl)-1,3,4-oxadiazol-2-yl)phenyl)-4H-chromen-4-one] | 291 to 292 °C |
| O=c1cc(-c2ccc(-c3nnc(-c4ccncc4)o3)cc2)oc2ccccc12 [Compound 18, 2-(4-(5-(Pyridin-4-yl)-1,3,4-oxadiazol-2-yl)phenyl)-4H-chromen-4-one] | 288 to 289 °C |
| O=c1cc(-c2ccc(-c3nnc(-c4cccnc4)o3)cc2)oc2ccccc12 [Compound 17, 2-(4-(5-(Pyridin-3-yl)-1,3,4-oxadiazol-2-yl)phenyl)-4H-chromen-4-one] | 280 to 281 °C |
| COc1ccc(-c2nnc(-c3ccc(-c4cc(=O)c5ccccc5o4)cc3)o2)cc1 [Compound 13, 2-(4-(5-(4-Methoxyphenyl)-1,3,4-oxadiazol-2-yl)phenyl)-4H-chromen-4-one] | 307 to 308 °C |
| Cc1cccc(-c2nnc(-c3ccc(-c4cc(=O)c5ccccc5o4)cc3)o2)c1 [Compound 8, 2-(4-(5-(m-Tolyl)-1,3,4-oxadiazol-2-yl)phenyl)-4H-chromen-4-one] | 264 to 265 °C |
| O=c1cc(-c2ccc(-c3nnc(-c4cccc([N+](=O)[O-])c4)o3)cc2)oc2ccccc12 [Compound 11, 2-(4-(5-(3-Nitrophenyl)-1,3,4-oxadiazol-2-yl)phenyl)-4H-chromen-4-one] | 296 to 297 °C |
| O=c1cc(-c2ccc(-c3nnc(-c4ccc([N+](=O)[O-])cc4)o3)cc2)oc2ccccc12 [Compound 10, 2-(4-(5-(4-Nitrophenyl)-1,3,4-oxadiazol-2-yl)phenyl)-4H-chromen-4-one] | 304 to 305 °C |
| Cc1ccccc1-c1nnc(-c2ccc(-c3cc(=O)c4ccccc4o3)cc2)o1 [Compound 9, 2-(4-(5-(o-Tolyl)-1,3,4-oxadiazol-2-yl)phenyl)-4H-chromen-4-one] | 260 to 261 °C |
| O=c1cc(-c2ccc(-c3nnc(Cc4ccccc4Cl)o3)cc2)oc2ccccc12 [Compound 3, 2-(4-(5-(2-Chlorobenzyl)-1,3,4-oxadiazol-2-yl)phenyl)-4H-chromen-4-one] | 276 to 277 °C |
| O=c1cc(-c2ccc(-c3nnc(-c4ccccn4)o3)cc2)oc2ccccc12 [Compound 16, 2-(4-(5-(Pyridin-2-yl)-1,3,4-oxadiazol-2-yl)phenyl)-4H-chromen-4-one] | 270 to 271 °C |
| Cc1ccc(-c2nnc(-c3ccc(-c4cc(=O)c5ccccc5o4)cc3)o2)cc1 [Compound 7, 2-(4-(5-(p-Tolyl)-1,3,4-oxadiazol-2-yl)phenyl)-4H-chromen-4-one] | 270 to 271 °C |
| O=c1cc(-c2ccc(-c3nnc(-c4ccc(Cl)cc4)o3)cc2)oc2ccccc12 [Compound 1, 2-(4-(5-(4-Chlorophenyl)-1,3,4-oxadiazol-2-yl)phenyl)-4H-chromen-4-one] | 288 to 289 °C |
| O=c1cc(-c2ccc(-c3nnc(-c4cccc(Cl)c4)o3)cc2)oc2ccccc12 [Compound 2, 2-(4-(5-(3-Chlorophenyl)-1,3,4-oxadiazol-2-yl)phenyl)-4H-chromen-4-one] | 282 to 283 °C |
